The source of these data is ChEMBL document CHEMBL4130574, “Discovery of novel 2,4-diarylaminopyrimidine analogues as ALK and ROS1 dual inhibitors to overcome crizotinib-resistant mutants including G1202R” (Eur J Med Chem, 2018).

Activity calls are given as the source filed them. The rule behind the calls is not given here.

Assay [1] has as its system NCI-H2228. In words: cells. The following applies: Homo sapiens, NCI-H2228, 72 h.
Description: Antiproliferative activity against human NCI-H2228 cells harboring EML4-ALK after 72 hrs by MTT assay
Assay [2] relates to NCI-H460. Put plainly: cells. To be noted: Homo sapiens, NCI-H460, 72 h.
Description: Antiproliferative activity against human NCI-H460 cells after 72 hrs by MTT assay
Assay [3] relates to HCC78. Put plainly: Antiproliferative activity against human HCC78 cells harboring SLC34A2-ROS1 after 72 hrs by MTT assay. It counts as functional, cell-based. The following applies: HCC78, 72 h. In general terms: Formazan colour is commonly taken as a measure of viable cells.
Assay [4] deals with T1, Proto-oncogene tyrosine-protein kinase ROS (Homo sapiens, UniProt P08922). In words: Inhibition of recombinant human N-terminal GST-tagged ROS1 cytoplasmic domain (1883 to 2347 residues) expressed in baculovirus expression system using peptide substrate after 1 hr by mobility shift assay.
T1 sequence (P08922 whole entry, the tested form may be a part): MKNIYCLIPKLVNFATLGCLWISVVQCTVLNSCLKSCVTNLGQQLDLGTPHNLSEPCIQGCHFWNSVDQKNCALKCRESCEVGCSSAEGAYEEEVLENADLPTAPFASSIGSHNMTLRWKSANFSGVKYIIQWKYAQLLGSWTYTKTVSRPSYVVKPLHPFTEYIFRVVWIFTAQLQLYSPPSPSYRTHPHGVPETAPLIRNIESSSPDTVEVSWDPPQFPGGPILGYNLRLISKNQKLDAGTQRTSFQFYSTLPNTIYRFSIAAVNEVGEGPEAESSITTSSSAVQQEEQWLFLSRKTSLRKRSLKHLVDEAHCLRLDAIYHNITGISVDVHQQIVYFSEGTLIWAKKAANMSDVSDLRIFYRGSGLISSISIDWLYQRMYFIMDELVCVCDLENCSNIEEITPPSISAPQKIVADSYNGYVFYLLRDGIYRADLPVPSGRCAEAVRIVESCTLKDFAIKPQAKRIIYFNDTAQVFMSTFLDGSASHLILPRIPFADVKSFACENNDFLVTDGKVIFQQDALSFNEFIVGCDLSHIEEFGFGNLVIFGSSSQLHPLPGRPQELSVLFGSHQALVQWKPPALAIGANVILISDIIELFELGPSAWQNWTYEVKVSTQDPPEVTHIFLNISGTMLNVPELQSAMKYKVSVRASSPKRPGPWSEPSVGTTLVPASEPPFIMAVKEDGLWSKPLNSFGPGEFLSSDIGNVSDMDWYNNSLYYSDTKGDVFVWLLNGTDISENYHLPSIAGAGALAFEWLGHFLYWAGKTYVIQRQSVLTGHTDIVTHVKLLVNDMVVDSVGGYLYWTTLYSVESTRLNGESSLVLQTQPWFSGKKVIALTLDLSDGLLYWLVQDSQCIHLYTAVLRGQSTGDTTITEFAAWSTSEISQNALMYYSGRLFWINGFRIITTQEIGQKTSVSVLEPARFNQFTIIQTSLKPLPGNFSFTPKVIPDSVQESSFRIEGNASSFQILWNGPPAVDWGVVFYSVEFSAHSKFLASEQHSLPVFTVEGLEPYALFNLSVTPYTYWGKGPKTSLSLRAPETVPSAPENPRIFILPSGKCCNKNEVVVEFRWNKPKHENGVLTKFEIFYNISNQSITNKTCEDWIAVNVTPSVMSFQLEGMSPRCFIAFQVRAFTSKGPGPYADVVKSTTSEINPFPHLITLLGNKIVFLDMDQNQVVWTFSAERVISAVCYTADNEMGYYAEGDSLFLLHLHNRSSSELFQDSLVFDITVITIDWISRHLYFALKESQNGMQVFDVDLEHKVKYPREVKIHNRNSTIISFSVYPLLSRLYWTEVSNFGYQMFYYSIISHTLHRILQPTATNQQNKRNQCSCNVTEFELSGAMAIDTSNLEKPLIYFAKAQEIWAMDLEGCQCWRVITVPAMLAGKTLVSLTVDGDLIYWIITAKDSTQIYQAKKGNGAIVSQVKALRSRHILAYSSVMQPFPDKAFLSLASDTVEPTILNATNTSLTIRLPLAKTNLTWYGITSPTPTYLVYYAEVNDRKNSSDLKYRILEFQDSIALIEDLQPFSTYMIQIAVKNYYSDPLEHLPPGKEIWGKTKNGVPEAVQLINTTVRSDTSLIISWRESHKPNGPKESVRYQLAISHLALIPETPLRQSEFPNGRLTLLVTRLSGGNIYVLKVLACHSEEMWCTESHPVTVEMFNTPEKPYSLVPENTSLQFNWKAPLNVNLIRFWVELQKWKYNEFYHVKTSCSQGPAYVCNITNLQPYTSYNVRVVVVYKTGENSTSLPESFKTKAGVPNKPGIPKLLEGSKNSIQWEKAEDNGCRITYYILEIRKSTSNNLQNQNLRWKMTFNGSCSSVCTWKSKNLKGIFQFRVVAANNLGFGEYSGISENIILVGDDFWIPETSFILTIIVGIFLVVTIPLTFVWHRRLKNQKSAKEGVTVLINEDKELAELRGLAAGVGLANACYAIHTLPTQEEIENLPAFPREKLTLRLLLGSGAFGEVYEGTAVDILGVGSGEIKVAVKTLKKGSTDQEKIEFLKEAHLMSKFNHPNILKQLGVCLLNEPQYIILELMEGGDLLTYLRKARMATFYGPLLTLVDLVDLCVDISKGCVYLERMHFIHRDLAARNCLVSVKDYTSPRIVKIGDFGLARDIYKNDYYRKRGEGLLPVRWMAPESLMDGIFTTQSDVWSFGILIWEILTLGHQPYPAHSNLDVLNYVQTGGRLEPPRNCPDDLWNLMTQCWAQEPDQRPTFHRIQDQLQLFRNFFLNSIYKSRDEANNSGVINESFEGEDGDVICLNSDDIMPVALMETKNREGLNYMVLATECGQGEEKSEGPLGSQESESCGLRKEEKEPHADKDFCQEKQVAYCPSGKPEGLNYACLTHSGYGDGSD
A short description of assay [5]: Selectivity ratio of IC50 for human HCC78 cells harboring SLC34A2-ROS1 to IC50 for human NCI-H2228 cells harboring EML4-ALK. It counts as functional.
Assay [6] concerns A549. Put plainly: cells. The following applies: Homo sapiens, A549, 72 h.
Description: Antiproliferative activity against human A549 cells harboring EGFR after 72 hrs by MTT assay
Assay [7] in a line: Selectivity ratio of IC50 for human HCC78 cells harboring SLC34A2-ROS1 to IC50 for human KARPAS299 cells harboring NPM-ALK. The assay is classed as functional.
The target of assay [8] is T2, ALK tyrosine kinase receptor (Homo sapiens, UniProt Q9UM73).
Description: Inhibition of recombinant human N-terminal GST-tagged ALK cytoplasmic domain (1058 to 1620 residues) expressed in baculovirus expression system using peptide substrate after 1 hr by mobility shift assay
The target in assay [9] is Epidermal growth factor receptor (Homo sapiens, UniProt P00533).
Chain of Epidermal growth factor receptor (P00533 whole entry): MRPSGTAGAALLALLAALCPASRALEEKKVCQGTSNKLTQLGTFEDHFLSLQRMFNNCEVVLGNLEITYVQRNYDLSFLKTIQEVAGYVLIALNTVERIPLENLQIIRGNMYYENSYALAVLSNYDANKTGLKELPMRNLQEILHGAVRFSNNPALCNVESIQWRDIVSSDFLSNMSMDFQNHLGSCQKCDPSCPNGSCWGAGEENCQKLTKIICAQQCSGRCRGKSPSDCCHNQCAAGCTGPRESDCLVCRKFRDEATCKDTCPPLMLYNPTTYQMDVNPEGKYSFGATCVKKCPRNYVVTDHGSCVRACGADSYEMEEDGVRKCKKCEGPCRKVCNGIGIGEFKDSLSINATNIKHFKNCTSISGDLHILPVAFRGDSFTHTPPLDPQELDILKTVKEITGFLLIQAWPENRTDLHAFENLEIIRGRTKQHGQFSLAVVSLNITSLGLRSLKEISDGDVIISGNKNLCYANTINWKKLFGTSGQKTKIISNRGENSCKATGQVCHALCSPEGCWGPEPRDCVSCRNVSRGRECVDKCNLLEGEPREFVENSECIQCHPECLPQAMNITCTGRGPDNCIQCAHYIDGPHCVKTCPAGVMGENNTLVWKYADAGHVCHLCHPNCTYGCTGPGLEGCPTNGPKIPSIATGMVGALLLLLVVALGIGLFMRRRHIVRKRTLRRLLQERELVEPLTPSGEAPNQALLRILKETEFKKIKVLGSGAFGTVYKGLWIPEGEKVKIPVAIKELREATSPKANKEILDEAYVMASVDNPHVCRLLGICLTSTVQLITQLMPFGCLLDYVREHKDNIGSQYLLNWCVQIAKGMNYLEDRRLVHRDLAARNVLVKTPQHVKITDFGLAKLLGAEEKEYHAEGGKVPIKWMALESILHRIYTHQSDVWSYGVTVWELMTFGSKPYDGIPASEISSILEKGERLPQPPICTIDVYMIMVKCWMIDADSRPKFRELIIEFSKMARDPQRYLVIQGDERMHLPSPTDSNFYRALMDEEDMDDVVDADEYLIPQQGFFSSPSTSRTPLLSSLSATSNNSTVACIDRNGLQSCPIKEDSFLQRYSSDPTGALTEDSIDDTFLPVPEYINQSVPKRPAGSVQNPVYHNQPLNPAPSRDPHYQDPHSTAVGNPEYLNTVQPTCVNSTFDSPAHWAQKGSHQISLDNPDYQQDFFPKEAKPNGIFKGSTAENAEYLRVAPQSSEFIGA
Description: Inhibition of recombinant human N-terminal GST-tagged EGFR cytoplasmic domain (669 to 1210 residues) expressed in baculovirus expression system using peptide substrate after 1 hr by mobility shift assay
The test system of assay [10] is KARPAS-299. In words: Antiproliferative activity against human KARPAS299 cells harboring NPM-ALK after 72 hrs by MTT assay. The assay is classed as functional, cell-based. To be noted: KARPAS-299, 72 h.
For assay [11], the target named is Hepatocyte growth factor receptor (Homo sapiens, UniProt P08581). In words: Inhibition of recombinant human N-terminal GST-tagged c-MET cytoplasmic domain (956 to 1390 residues) expressed in baculovirus expression system using peptide substrate after 1 hr by mobility shift assay.
Chain of Hepatocyte growth factor receptor (P08581 whole entry, the tested form may be a part): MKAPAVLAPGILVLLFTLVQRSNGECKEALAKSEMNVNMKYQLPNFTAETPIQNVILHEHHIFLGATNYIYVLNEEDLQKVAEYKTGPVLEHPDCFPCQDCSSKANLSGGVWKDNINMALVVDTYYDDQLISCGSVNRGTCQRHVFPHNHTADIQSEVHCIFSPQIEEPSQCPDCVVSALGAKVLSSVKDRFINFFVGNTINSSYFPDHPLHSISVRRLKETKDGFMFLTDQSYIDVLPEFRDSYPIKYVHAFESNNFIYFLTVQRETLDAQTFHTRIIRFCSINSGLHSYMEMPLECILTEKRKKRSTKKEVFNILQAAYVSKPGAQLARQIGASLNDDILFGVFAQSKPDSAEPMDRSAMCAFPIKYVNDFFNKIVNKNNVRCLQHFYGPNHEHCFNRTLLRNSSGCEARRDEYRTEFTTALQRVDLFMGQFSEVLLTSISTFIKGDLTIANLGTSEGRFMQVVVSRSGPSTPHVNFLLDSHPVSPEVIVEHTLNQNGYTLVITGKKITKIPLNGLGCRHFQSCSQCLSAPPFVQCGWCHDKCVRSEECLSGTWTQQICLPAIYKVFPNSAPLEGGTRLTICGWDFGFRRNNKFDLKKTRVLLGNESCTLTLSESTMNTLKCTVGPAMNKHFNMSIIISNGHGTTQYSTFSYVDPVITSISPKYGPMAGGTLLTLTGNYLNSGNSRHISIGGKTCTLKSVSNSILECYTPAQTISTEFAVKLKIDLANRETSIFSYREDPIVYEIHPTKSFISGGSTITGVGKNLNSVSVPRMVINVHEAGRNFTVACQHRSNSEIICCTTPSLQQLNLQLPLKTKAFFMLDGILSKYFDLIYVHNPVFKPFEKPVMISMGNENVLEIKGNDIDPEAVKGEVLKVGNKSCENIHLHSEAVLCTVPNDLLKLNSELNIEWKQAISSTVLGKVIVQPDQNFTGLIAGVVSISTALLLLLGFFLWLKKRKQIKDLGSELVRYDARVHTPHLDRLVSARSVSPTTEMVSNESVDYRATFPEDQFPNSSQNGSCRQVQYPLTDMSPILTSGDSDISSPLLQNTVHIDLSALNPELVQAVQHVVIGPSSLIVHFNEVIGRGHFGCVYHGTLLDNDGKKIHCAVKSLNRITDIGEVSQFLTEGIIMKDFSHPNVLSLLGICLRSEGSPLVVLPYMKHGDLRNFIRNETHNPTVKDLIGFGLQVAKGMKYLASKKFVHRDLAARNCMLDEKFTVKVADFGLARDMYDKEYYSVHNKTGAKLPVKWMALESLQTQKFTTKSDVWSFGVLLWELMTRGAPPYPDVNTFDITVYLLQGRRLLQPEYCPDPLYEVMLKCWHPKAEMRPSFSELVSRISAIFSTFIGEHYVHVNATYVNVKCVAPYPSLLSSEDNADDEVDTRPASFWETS
Assay [12] deals with T2, ALK tyrosine kinase receptor. Put plainly: Inhibition of ALK phosphorylation in human KARPAS299 cells after 6 hrs by Western blot method. The assay is classed as cell-based. A general note: In western blotting, separated proteins are transferred to a membrane and probed.
Assay [13] concerns ALK tyrosine kinase receptor (Homo sapiens), Q9UM73 [L1196M].
Assay [14] addresses ALK tyrosine kinase receptor (Homo sapiens, UniProt Q9UM73, G1269A).
The target of assay [15] is ALK tyrosine kinase receptor (Homo sapiens, UniProt Q9UM73, G1202R).
Assay [16] relates to HCC78. Put plainly: Downregulation of ROS1 protein expression in human HCC78 cells at 100 nM after 6 hrs by Western blot method. It counts as functional, cell-based.
The target of assay [17] is ALK tyrosine kinase receptor (Homo sapiens, UniProt Q9UM73, T1151INS).
For assay [18], the target named is ALK tyrosine kinase receptor (Homo sapiens, UniProt Q9UM73, S1206Y).
In assay [19] the target is T1, Proto-oncogene tyrosine-protein kinase ROS. Put plainly: Inhibition of ROS1 phosphorylation in human HCC78 cells at 100 nM after 6 hrs by Western blot method. The assay is classed as cell-based.
In assay [20] the test system is ALK tyrosine kinase receptor (Homo sapiens), Q9UM73 [G1202R].
Assay [21] concerns the target ALK tyrosine kinase receptor (Homo sapiens, UniProt Q9UM73, C1156Y).
In assay [22] the target is ALK tyrosine kinase receptor (Homo sapiens, UniProt Q9UM73, L1196M).
Assay [23] relates to KARPAS-299. In words: Induction of apoptosis in human KARPAS299 cells harboring NPM-ALK after 24 hrs by acridine orange/ethidium bromide staining based fluorescence microscopic method. The assay is classed as functional, cell-based.
Assay [24] deals with KARPAS-299. In words: Downregulation of ALK protein expression in human KARPAS299 cells after 6 hrs by Western blot method. It counts as functional, cell-based.
Assay [25] relates to HCC78. Put plainly: Induction of apoptosis in human HCC78 cells harboring SLC34A2-ROS1 after 24 hrs by acridine orange/ethidium bromide staining based fluorescence microscopic method. The assay is classed as functional, cell-based.

Usually IC50 stands for the concentration that gives 50% inhibition. Turning to `COc1cc(-c2nc(CN3CCN(C)CC3)cs2)ccc1Nc1ncc(Cl)c(Nc2ccccc2S(=O)(=O)C(C)C)n1`, the IC50 in [1] was 98 nM; in assay [2], 870 nM; in assay [3], 93 nM; in assay [4], 9.8 nM; in assay [6], over 1000 nM; in [8] it was 2.3 nM. Besides, the half-inhibitory concentration (IC50) was over 1000 nM in assay [9], 22 nM in [10] and 820 nM in assay [11]. Besides, the “Ratio IC50” value in assay [5] and in assay [7] was 2.3 each time.
In the case of `COc1cc(-n2cc(CN3CCN(C)CC3)nn2)ccc1Nc1ncc(Cl)c(Nc2ccccc2S(=O)(=O)C(C)C)n1`, the inhibition result in [12] was “Dose-dependent effect”. In addition, the Ratio IC50 in [13] is 11; in [20], 10. Moreover, the IC50 in [14] was 2.8 nM; in assay [15] it was 8.7 nM; in [1], 95 nM; in assay [2] it was over 1000 nM; in [3], 40 nM; in [4] it was 1.1 nM. The IC50 in assay [17] is 2.3 nM; in [18] it was 4.6 nM; in assay [6] it was over 1000 nM; in [21] it was 3 nM; in assay [8] it was 1.4 nM; in assay [22], 3.1 nM. Moreover, the IC50 in assay [9] is over 1000 nM; in assay [10] it was 21 nM; in assay [11], over 1000 nM. The outcome in [16] was Active. Moreover, the inhibition result in assay [19] was “Active”. In addition, the Activity entry in assay [23], in [24] and in assay [25] was “Dose-dependent effect” throughout.
